# Reference: paper PMC6315694, “Synthesis of Pseudellone Analogs and Characterization as Novel T-type Calcium Channel Blockers” (Marine Drugs, 2018)
# How the values were obtained:
# [1] = system: voltage-gated calcium channels (VGCCs); test: FLIPR cell-based assays on VGCCs (overall statement); design: species or system human; conditions: all VGCC FLIPR assays (CaV3.1, CaV3.2, CaV3.3, CaV2.2, CaV1)
# Protocol: (§1) HEK 293 cells stably expressing CaV3.2 or CaV3.3 were seeded into 384-well black wall clear bottom plates (Corning, Lowell, MA, USA) at a density of 30,000 cells per well. Transiently transfected CaV3.1HEK293 T cells were seeded into 384-well black wall clear bottom plates at a density of 60,000 cells per well. Once the cells reached 90%–95% confluence after 24 h, the media were removed from the wells and replaced with 20 μL of 10% calcium 4 dye (Molecular Devices, Sunnyvale, CA, USA) in HBSS-HEPES (containing 5 mM KCl, 10 mM HEPES, 140 mM NaCl, 10 mM glucose, and 0.5 mM CaCl2, pH 7.4) with 0.1% bovine serum albumin (BSA). The cells were incubated for 30 min at 37 °C in the presence of 5% carbon dioxide. Each well on the reagent plates for the first addition contained 15 μL different concentrations of compounds dissolved in HBSS-HEPES containing 0.1% BSA and <0.1% DMSO and was incubated for 20 min after loading. Positive and negative controls contained 15 μL of HBSS-HEPES (0.1% BSA) alone. The plates were placed in the FLIPR^TETRA (Molecular Devices, Sunnyvale, CA, USA) programmed to measure maximum fluorescence intensity following a second addition of the agonist 5 mM CaCl2. The data acquisition parameters were adjusted as follows: Baseline fluorescence of 1500–2000 arbitrary fluorescence units (AFU), emission wavelength of 515–575 nm, and excitation wavelength of 470–495 nm. HBSS-HEPES (0.1% BSA) was used in the second addition as a negative control. One fluorescence reading was taken before the second addition. Then the fluorescence readings were recorded every two seconds for 300 s. Raw fluorescence readings in the form of relative light units were converted to response over baseline using ScreenWorks® (Molecular Devices, version 3.2.0.14) software.
# CaV3.3 = CaV3.3 (Homo sapiens, UniProt Q9P0X4); test: T-type calcium channel window current FLIPR assay, CaV3.3; format: cell-based; conditions: for IC50: FLIPR window current assay, HEK 293 stable, N = 3, mean ± SEM, read-out: IC50 CaV3.3 (LVA CaVs)
# Protocol: (§2) The human embryonic kidney 293 (HEK 293) cell lines (from Emmanuel Bourinet, Montpellier, France) stably expressing CaV3.2 or CaV3.3 were cultured under 5% carbon dioxide at 37 °C in Dulbecco’s Modified Eagle Medium (DMEM) Glutamax (Gibco, Life Technologies, Carlsbad, CA, USA) supplemented with 10% (v/v) fetal bovine serum (FBS), 100 U/mL penicillin, 100 μg/mL streptomycin (Gibco, Life Technologies), and 750 μg/mL geneticin (G418) (Gibco, Life Technologies). The Chinese Hamster Ovary (CHO) cell lines (Emmanuel Bourinet, Montpellier, France) expressing CaV3.1 were cultured under 5% carbon dioxide at 37 °C in Alpha Minimum Essential Media (MEM) Glutamax (Gibco, Life Technologies), supplemented with 10% (v/v) fetal bovine serum (FBS) and 300 μg/mL geneticin (G418) (Gibco, Life Technologies). The human neuroblastoma SH-SY5 Y cells (Victor Diaz, Goettingen, Germany) were cultured under 5% carbon dioxide at 37 °C in RPMI 1640 antibiotic-free medium (Invitrogen, Carlsbad, CA, USA), supplemented with 15% FBS and 2 mM GlutaMAX™ (Invitrogen). D-PBS (Gibco, Life Technologies) was used to wash the cells, and 0.25% Trypsin-EDTA (Gibco, Life Technologies) was used to detach cells from the flask surface. They were split in a ratio of 1:5 (ideally 1000 cells/cm^2) when they reached 70%–80% confluence (every 2–3 days). Transiently transfected CaV3.1HEK293 T cells were used in FLIPR Assays. HEK 293 T cells were cultured under 5% carbon dioxide at 37 °C in DMEM supplemented with 10% (v/v) FBS. D-PBS was used to wash the cells, and 0.25% Trypsin-EDTA was used to detach cells from the flask surface. The cells were split and seeded at 6 million cells per T175 flask, to reach 70%–80% confluence after 24 h. The next day, 12 μg DNA of human CaV3.1 was incubated in 900 μL serum-free DMEM with 36 μL FuGENE HD transfection reagent (Promega Corporation, Madison, WI, US) (1:3 DNA/Fugene ratio) for 20 min, and then the mixture was added into the cell flask slowly, drop by drop. After the transfection, the cells were cultured under 5% carbon dioxide at 37 °C for 24 h and then moved to a 28 °C incubator.
# as §1
# (§3) Data were plotted and analyzed using GraphPad Prism v7.0 (GraphPad Software Inc., San Diego, CA, USA).
# [2] = system: L-type calcium channel (CaV1); test: HVA calcium channel FLIPR assay, L-type (SH-SY5Y cells); format: cell-based, human; conditions: 1 µM CVID present, N = 3, mean ± SEM, read-out: IC50 CaV1 (HVA CaVs)
# Protocol: as §2
# SH-SY5Y cells were seeded into 384-well black wall clear bottom plates at a density of 15,000 cells per well, resulting in 90%–95% confluence after 24 h. […] The fluorescence readings were recorded and converted as described previously, and agonist containing 90 mM KCl + 5 mM CaCl2 was used in the second addition.
# Data were plotted and analyzed using GraphPad Prism v7.0 (GraphPad Software Inc., San Diego, CA, USA). […]
# human CaV3.1 = biological target: T1, human CaV3.1 (Homo sapiens, UniProt O43497); test: T-type calcium channel window current FLIPR assay, CaV3.1; format: cell-based; conditions: for IC50: FLIPR window current assay, transiently transfected HEK293T, N = 3, mean ± SEM, read-out: IC50 CaV3.1 (LVA CaVs)
# T1 construct: expressed in transfected cells; host or cells: HEK 293T, transient transfection (FuGENE HD)
# Protocol: as §2, §1, §3
# N-type CaV2.2 = biological target: T2, N-type CaV2.2 (Homo sapiens, UniProt Q00975); test: HVA calcium channel FLIPR assay, N-type (SH-SY5Y cells); format: cell-based; conditions: for IC50: 10 µM nifedipine present, N = 3, mean ± SEM, read-out: IC50 CaV2.2 (HVA CaVs)
# T2 construct: endogenous in cells
# Protocol: as §2
# SH-SY5Y cells were seeded into 384-well black wall clear bottom plates at a density of 15,000 cells per well, resulting in 90%–95% confluence after 24 h. The media were then removed from the wells and replaced with 20 μL of 10% calcium 4 dye (Molecular Devices) in physiological salt solution (PSS) (containing 5.9 mM KCl, 1.4 mM MgCl2, 10 mM HEPES, 1.2 mM NaH2 PO4, 5 mM NaHCO3, 140 mM NaCl, 11.5 mM glucose, and 1.8 mM CaCl2, pH 7.4) with 0.1% BSA. […] Positive control on the first reagent plate contained 15 μL of PSS (0.1% BSA), whereas PSS (0.1% BSA) containing 1 µM CVID and 10 µM nifedipine (final concentration) was used as a negative control. The fluorescence readings were recorded and converted as described previously, and agonist containing 90 mM KCl + 5 mM CaCl2 was used in the second addition.
# Data were plotted and analyzed using GraphPad Prism v7.0 (GraphPad Software Inc., San Diego, CA, USA). A four-parameter logistic Hill equation with variable Hill coefficients was fitted to the data for concentration-response curves. Data are means ± SEM of n independent experiments. Statistical analysis was performed with a paired Student’s t-test with statistical significance at p < 0.05.
# CaV3.2 = CaV3.2 (Homo sapiens, UniProt O95180); test: T-type calcium channel window current FLIPR assay, CaV3.2; format: cell-based; conditions: FLIPR window current assay, HEK 293 stable, N = 3, mean ± SEM; read-out: IC50 CaV3.2 (LVA CaVs)
# Protocol: as §2, §1, §3
# [3] = system: T-type calcium channel (CaV3.x); design: method as in PMID 22344687, PMID 19582593; conditions: activated current generated from the channel-closed state; cited from earlier work
# Chain of CaV3.2 (O95180 whole entry): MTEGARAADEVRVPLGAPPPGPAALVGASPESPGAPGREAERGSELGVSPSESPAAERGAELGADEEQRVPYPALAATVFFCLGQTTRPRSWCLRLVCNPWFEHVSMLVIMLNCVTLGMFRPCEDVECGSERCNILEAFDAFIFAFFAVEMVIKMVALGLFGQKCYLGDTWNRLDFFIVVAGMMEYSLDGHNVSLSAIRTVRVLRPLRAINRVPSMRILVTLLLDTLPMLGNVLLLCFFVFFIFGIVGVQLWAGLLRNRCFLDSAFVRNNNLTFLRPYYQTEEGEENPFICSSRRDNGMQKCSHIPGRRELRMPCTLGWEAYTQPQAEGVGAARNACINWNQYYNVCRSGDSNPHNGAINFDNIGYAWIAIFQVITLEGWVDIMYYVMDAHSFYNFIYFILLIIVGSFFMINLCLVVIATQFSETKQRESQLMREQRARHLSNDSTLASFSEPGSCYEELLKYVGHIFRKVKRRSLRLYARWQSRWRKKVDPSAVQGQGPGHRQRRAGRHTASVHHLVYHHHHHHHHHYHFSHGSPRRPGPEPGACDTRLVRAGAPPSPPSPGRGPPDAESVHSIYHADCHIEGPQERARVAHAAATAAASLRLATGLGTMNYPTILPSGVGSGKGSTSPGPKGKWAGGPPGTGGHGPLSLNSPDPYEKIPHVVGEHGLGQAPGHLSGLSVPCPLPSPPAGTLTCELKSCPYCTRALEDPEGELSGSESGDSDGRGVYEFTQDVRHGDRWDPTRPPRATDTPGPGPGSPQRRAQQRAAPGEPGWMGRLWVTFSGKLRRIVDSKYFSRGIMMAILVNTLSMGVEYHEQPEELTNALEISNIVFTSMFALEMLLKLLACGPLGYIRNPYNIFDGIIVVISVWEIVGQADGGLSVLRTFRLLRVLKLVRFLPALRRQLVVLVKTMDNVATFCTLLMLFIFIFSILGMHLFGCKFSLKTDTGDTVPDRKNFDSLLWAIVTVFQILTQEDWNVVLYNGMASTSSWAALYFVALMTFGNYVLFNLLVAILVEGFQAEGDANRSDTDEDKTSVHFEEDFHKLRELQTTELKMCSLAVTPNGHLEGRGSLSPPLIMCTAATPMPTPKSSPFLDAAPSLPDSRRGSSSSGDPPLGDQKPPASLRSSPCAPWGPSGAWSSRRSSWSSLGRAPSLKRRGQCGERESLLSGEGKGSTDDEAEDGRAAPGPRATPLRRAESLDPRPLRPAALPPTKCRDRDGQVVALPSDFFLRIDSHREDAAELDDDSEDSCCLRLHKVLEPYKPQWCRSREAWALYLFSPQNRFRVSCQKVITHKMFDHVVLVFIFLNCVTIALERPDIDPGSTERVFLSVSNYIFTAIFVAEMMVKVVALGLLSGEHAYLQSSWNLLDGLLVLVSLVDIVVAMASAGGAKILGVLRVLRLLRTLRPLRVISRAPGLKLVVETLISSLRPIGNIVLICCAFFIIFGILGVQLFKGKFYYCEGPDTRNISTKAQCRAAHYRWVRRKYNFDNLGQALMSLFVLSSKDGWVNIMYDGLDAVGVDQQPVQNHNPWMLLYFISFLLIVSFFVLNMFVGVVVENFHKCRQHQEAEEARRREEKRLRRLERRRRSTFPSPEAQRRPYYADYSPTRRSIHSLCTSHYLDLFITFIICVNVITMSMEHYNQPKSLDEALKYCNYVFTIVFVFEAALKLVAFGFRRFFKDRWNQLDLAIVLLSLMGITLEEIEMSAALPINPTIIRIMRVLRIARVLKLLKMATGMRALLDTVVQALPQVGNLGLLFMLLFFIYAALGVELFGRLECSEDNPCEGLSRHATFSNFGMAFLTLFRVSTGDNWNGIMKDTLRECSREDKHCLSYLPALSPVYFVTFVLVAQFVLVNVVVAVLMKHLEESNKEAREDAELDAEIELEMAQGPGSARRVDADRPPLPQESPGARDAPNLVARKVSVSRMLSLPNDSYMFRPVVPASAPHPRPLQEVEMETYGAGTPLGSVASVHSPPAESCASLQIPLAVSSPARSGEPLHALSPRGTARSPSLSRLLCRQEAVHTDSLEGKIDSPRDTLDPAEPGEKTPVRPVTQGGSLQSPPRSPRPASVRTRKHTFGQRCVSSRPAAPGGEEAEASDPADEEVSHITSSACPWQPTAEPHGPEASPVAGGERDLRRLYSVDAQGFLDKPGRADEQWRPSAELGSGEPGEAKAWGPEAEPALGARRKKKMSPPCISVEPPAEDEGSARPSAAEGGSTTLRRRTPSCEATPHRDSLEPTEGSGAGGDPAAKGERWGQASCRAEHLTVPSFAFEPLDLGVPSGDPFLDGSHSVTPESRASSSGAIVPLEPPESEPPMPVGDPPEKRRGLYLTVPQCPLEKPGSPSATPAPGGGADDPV
# T1 sequence (O43497 whole entry): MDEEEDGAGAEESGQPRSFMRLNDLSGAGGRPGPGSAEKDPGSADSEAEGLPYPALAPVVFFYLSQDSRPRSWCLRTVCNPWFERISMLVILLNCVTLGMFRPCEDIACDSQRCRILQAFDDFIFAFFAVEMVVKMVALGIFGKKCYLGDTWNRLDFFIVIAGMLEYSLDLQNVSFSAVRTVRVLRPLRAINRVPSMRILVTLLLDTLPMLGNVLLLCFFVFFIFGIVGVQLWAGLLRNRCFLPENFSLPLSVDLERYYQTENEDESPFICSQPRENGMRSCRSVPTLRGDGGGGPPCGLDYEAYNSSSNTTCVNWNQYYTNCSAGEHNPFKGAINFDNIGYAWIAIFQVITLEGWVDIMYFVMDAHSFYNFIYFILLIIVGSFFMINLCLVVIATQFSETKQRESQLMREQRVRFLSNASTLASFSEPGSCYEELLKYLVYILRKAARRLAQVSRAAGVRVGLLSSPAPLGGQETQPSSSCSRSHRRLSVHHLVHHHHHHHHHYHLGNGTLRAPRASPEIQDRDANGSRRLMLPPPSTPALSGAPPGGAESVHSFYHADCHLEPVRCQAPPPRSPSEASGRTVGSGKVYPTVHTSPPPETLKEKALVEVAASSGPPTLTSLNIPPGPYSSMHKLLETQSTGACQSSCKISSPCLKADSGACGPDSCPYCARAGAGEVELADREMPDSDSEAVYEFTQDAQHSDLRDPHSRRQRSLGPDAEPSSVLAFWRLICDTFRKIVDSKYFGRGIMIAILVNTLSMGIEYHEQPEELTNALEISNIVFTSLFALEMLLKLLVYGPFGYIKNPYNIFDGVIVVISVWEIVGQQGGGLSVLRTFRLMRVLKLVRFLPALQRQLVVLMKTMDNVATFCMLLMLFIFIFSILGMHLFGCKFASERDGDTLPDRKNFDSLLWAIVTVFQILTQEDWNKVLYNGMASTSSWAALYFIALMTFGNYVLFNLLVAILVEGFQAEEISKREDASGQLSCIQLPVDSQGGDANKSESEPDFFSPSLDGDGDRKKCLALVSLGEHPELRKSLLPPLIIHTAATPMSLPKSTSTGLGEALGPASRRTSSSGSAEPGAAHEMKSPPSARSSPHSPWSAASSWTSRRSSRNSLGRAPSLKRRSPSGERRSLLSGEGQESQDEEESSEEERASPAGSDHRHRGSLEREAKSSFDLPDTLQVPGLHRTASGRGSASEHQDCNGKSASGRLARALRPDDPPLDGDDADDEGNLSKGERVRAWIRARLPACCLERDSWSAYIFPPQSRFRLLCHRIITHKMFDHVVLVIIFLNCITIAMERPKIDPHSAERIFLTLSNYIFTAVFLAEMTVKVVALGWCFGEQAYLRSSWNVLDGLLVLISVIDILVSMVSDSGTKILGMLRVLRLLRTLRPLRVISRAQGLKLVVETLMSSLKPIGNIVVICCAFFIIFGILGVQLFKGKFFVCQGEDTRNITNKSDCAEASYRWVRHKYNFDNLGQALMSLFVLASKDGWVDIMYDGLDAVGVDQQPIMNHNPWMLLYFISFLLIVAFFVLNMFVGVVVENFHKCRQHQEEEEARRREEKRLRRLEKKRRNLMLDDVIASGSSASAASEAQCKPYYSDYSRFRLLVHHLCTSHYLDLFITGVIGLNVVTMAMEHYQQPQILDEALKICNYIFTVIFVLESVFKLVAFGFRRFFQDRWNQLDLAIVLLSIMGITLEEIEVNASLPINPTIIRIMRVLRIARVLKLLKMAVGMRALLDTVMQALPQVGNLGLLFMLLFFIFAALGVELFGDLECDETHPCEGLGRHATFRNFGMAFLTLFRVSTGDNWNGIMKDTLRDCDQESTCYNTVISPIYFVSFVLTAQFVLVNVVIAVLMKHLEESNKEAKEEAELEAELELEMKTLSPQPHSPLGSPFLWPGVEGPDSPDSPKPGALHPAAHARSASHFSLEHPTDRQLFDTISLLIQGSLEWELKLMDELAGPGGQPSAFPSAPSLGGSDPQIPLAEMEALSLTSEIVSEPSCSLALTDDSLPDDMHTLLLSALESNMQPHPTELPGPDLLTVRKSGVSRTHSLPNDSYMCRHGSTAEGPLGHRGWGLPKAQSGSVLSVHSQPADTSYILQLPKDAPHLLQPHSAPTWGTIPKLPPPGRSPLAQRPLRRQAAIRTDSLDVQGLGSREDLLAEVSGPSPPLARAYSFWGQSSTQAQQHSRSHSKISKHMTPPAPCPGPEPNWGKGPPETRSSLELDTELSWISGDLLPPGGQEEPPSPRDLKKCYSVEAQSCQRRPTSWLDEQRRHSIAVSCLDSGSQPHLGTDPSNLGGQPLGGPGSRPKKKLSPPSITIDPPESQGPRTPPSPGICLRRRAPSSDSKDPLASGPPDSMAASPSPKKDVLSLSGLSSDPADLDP
Further reduced potency for CaV3.3 compared to 2 (CaV3.3; FLIPR) [fold],IC50 (CaV3.3) [µM],IC50 [2] [µM],"Kind of block of CaV3.1, in words (human CaV3.1; FLIPR)",IC50 (human CaV3.1) [µM],"Emax (human CaV3.1; FLIPR, n = 3, read-out: Emax, inhibition for CaV3.1) [%]","Kind of block of CaV2.2, in words (N-type CaV2.2)",IC50 (N-type CaV2.2; SH-SY5Y) [µM],"Emax (N-type CaV2.2; SH-SY5Y, n = 3, read-out: Emax, inhibition for N-type CaV2.2) [%]",IC50 (CaV3.2) [µM],Structure (SMILES),"Inhibition of Ca2+ responses, in words [1]","Potency for T-type window currents versus activated current, in words [3]"
> 3,26.6 ± 1.23,322 ± 21.6,partial blocking,53.5 ± 2.72,63.6,partial blocking,82.5 ± 7.6,39.3,44 ± 1.6,"CNC(=O)C(NC(=O)C(C)(c1c[nH]c2ccccc12)c1c[nH]c2ccccc12)C(=O)c1c[nH]c2ccccc12 (stereo not drawn) [Compound 1, Pseudellone C]",weak calcium channel blocker,
,90.1 ± 4.99,132 ± 1.63,,122 ± 5.96,,,147 ± 1.72,,80.7 ± 6.21,"CC(C(=O)N[C@@H](Cc1c[nH]c2ccccc12)C(=O)O)(c1c[nH]c2ccccc12)c1c[nH]c2ccccc12 [Compound 3a, (2,2-di(1H-indol-3-yl)propanoyl)-L-tryptophan]",poor inhibition,
,119 ± 8.66,264 ± 11.9,,72.28 ± 0.41,,,179 ± 19.7,,132 ± 6.13,"CC(C(=O)O)(c1c[nH]c2ccccc12)c1c[nH]c2ccccc12 [Compound 4, 2,2-di(1H-indol-3-yl)propanoic Acid]",poor inhibition,
,,,,,,,,,,CC(C)(C)NC(=O)CN1CCC(CNC(=O)c2cc(F)cc(Cl)c2)CC1 [Compound Z944],,better potency for T-type window currents than the activated current
,,,,,,,,,,C[C@@H](NC(=O)Cc1ccc(C2CC2)cc1)c1ccc(OCC(F)(F)F)cn1 [TTA-A2],,better potency for T-type window currents than the activated current

Structure (SMILES),Further reduced potency for CaV3.3 compared to 2 (CaV3.3; FLIPR) [fold],IC50 (CaV3.3) [µM],IC50 [2] [µM],"Kind of block of CaV3.1, in words (human CaV3.1; FLIPR)",IC50 (human CaV3.1) [µM],"Emax (human CaV3.1; FLIPR, n = 3, read-out: Emax, inhibition for CaV3.1) [%]","Kind of block of CaV2.2, in words (N-type CaV2.2)",IC50 (N-type CaV2.2; SH-SY5Y) [µM],"Emax (N-type CaV2.2; SH-SY5Y, n = 3, read-out: Emax, inhibition for N-type CaV2.2) [%]",IC50 (CaV3.2) [µM],"Inhibition of Ca2+ responses, in words [1]","Potency for T-type window currents versus activated current, in words [3]"
"O=c1[nH]c2ccccc2n1C1CCN(CCCC(c2ccc(F)cc2)c2ccc(F)cc2)CC1 [pimozide, reference compound]",,7.71 ± 0.7,,,,,,,,4.2 ± 1.06,,
